Like-named read-outs stand apart in the source and are kept apart here.
What was measured:
Format in all cases: in vivo
[1] = test system: Amaranthus palmeri; test: Test Example 4: foliar spraying treatment, herbicidal effect from above ground weight; conditions: 3 weeks after spraying
Procedure: (§1) POA allylphenyl ether (4.1 parts by weight), POE-POP glycol (1 part by weight), POE sorbitan laurate (0.8 parts by weight), glycerin (2.6 parts by weight), dimethylformamide (65.9 parts by weight), N-methylpyrrolidone (5.1 parts by weight), cyclohexanone (15.4 parts by weight), and aromatic hydrocarbons (5.1 parts by weight) were mixed and dissolved to prepare an emulsion. The active ingredient (4 mg) of the composition of the present invention was dissolved in this emulsion (100 μL) to prepare a test emulsion. It should be noted that POA means “polyoxyalkylene”, POE means “polyoxyethylene”, and POP means “polyoxypropylene”.
(§2) A 300 cm^2 pot was filled with soil, and seeds of Zea mays, Setaria faberi, Sorghum halepense, Brachiaria platyphylla, Amaranthus palmeri, Senna obtusifolia and Ipomoea hederacea were sown into the surface layer, and then grown in a greenhouse after being covered lightly with soil. When each plant grew to a plant height of 7 to 11 cm, it was used for the test. The test emulsion was diluted so that the amount of the active ingredient became a predetermined amount, and sprayed on the foliage with a small sprayer at a spray water volume of 250 L per hectare.
(§3) For the evaluation of the herbicidal effects, the above ground weights of weeds in the untreated and treated areas were measured for each weed 3 weeks after spraying treatment, and the herbicidal effect (%) was calculated by the following calculation formula.
(§4) In addition, the expected values of the herbicidal effects were calculated from the herbicidal effects in a case where the compound (I) alone was applied and the herbicidal effects in a case where the compound (II) alone was applied by using the Colby's formula (Colby, S. R., Calculating synergistic and antagonistic responses of herbicide combinations, Weeds, 15, pp. 20-22 (1967)).
(§5) M indicates an herbicidal effect (%) in the application of the compound (1) alone, N indicates an herbicidal effect (%) in the application of the compound (II) alone, and E indicates an expected value (%) of the herbicidal effect in the combined application of the compound (I) and the compound (II). When the actual measured value (%) of the herbicidal effect in the combined application of the compound (I) and the compound (II) is greater than the expected value E, it can be regarded that the combined application of the compound (1) and the compound (II) has a synergistic effect.
(§6) Herbicidal effect (%)=[(above ground weight of weeds in untreated area)−(above ground weight of weeds in treated area)/(above ground weight of weeds in untreated area)]×100
(§7) The following grass species were used as grass species to be controlled [scientific names]. • Giant foxtail [Setaria faberi] • Johnson grass [Sorghum halepense] • Broadleaf signalgrass [Brachiaria platyphylla] • Palmer amaranth [Amaranthus palmeri] • Sicklepod [Senna obtusifolia] • Morning glory [Ipomoea hederacea]

[2] = test system: Senna obtusifolia; test: as above; conditions: 3 weeks after spraying
Procedure: as §1, §2, §3, §4, §5, §6, §7

[3] = test system: Ipomoea hederacea; test: as above; conditions: 3 weeks after spraying
Procedure: as §1, §2, §3, §4, §5, §6, §7

[4] = test system: Brachiaria platyphylla; test: as above; conditions: 3 weeks after spraying
Procedure: as §1, §2, §3, §4, §5, §6, §7

[5] = test system: Sorghum halepense; test: as above; conditions: 3 weeks after spraying
Procedure: as §1, §2, §3, §4, §5, §6, §7

[6] = test system: Setaria faberi; test: as above; conditions: 3 weeks after spraying
Procedure: as §1, §2, §3, §4, §5, §6, §7

[7] = test system: Zea mays; test: Test Example 4: foliar spraying treatment, herbicidal effect from above ground weight (useful plant); conditions: 3 weeks after spraying
Procedure: as §1, §2, §3
as §4, with “(1967)). […]” for “(1967)).”

[8] = test system: Ipomoea hederacea; test: Test Example 6: foliar spraying treatment, herbicidal effect from above ground weight
Procedure: as §1
(§8) A test emulsion was prepared in the same manner as in Test Example 4.
as §2, with “mays” for “mays, Setaria faberi, Sorghum halepense, Brachiaria platyphylla, Amaranthus palmeri, Senna obtusifolia”, “9” for “11”, “cm,” for “cm, it was used for”, “above” for “test. The”
(§9) Test Examples 6-1 and 6-3 were evaluated in the same manner as in Test Example 4.
(§10) The expected values of the herbicidal effects in Test Example 6-2 were calculated using the following Colby's formula (Colby, S. R., Calculating synergistic and antagonistic responses of herbicide combinations, Weeds, 15, pp. 20-22 (1967)).
(§11) X indicates an herbicidal effect (%) by applying the compound (1) alone, Y and Z each indicate an herbicidal effect (%) by applying one of the two types of the compounds (II) alone, and E indicates an expected value (%) of the herbicidal effect by applying combinations of the compound (I) and two types of the compounds (II).
(§12) When the actual measured value (%) of the herbicidal effect by the combined application of the compound (I) and two types of the compounds (11) is greater than the expected value E, it can be regarded that the combined application of the compound (1) and two types of the compounds (II) has a synergistic effect.
The following grass species were used as grass species to be controlled [scientific names]. • Morning glory [Ipomoea hederacea]

[9] = test system: Zea mays; test: Test Example 6: foliar spraying treatment, herbicidal effect from above ground weight (useful plant)
Procedure: as §1, §8
as §2, with “mays” for “mays, Setaria faberi, Sorghum halepense, Brachiaria platyphylla, Amaranthus palmeri, Senna obtusifolia”, “9” for “11”, “cm,” for “cm, it was used for”, “above” for “test. The”
as §9, §10, §11, §12
The following plants were used as useful plants [scientific names]. • Corn for animal feed [Zea mays]

[10] = test system: Ambrosia artemisiifolia; test: Test Example 1: seeds on filter paper moistened with chemical solution, herbicidal effect visually evaluated; conditions: visually evaluated 6 days after treatment; for pest or weed control at 0.2 ppm: amount of active ingredient 0.2 ppm
Procedure: As the compound (1), 1-methoxy-3-methyl-6-(1,1-dioxido-8-(trifluoromethyl)thiochroman-5-yl)-7-oxa-3,4-diazabicyclo[4.1.0]hept-4-en-2-one (Compound (I-3)) was used.
(§13) The compound (I) or compound (II) was prepared into a 5% emulsion using DMF (containing 1.5% Tween) and diluted with water to a prescribed dosage concentration. Commercially available preparations were dissolved in water and adjusted to a prescribed dosage concentration.
(§14) Seeds were soaked in 0.6% sodium hypochlorite for a predetermined time for surface sterilization and washed with water for use (seed disinfection). Seeds of Ambrosia artemisiifolia were used for the test.
(§15) Filter paper was placed on a cup (diameter: 10 cm, height: 4 cm) with a lid and moistened with 8 ml of chemical solution, and seeds were sown thereon, and after covering with a lid, grown in a constant temperature room.
(§16) The herbicidal effects were visually evaluated, 6 days after the treatment, as the herbicidal effect (%), by comparing with a state of an untreated group using a total of 21 scores of withering index from 0 to 20 (0: mortality rate equivalent to that of the untreated group, 20: mortality rate of 100%).
as §4
(§17) M indicates an herbicidal effect (%) in the application of the compound (I) alone, N indicates an herbicidal effect (%) in the application of the compound (II) alone, and E indicates an expected value (%) of the herbicidal effect in the combined application of the compound (T) and the compound (TT). When the actual measured value (%) of the herbicidal effect in the combined application of the compound (I) and the compound (II) is greater than the expected value E, it can be regarded that the combined application of the compound (I) and the compound (II) has a synergistic effect.

[11] = test system: Abutilon theophrasti; test: Test Example 3: seeds on filter paper moistened with chemical solution, herbicidal effect visually evaluated; conditions: 6 days after the treatment
Procedure: as §13, §14, §15, §16, §4, §17
The herbicidal effects were evaluated by the same method as in Test Example 1 except that the seeds used in the test were changed from Ambrosia artemisiifolia to Abutilon theophrasti.

[12] = test system: Triticum aestivum; test: Test Example 5: spraying on the soil surface, herbicidal effect from above ground weight (useful plant); conditions: Flufenacet alone, 250 gai/ha, sprayed on the soil surface, seven weeks after spraying
Procedure: as §1, §3, §6, §8
(§18) A 300 cm^2 pot was filled with soil, and seeds of Triticum aestivum, multidrug-resistant Alopecurus myosuroides, Lolium multiflorum and Avena fatua were sown into the surface layer, and covered with soil to a thickness of 0.5 to 1 cm. The above test emulsion was diluted so that the amount of the active ingredient became a predetermined amount, and sprayed on the soil surface at a spray water volume of 250 L per hectare, followed by growth in an outdoor environment.
(§19) Seven weeks after spraying, the evaluation was carried out in the same manner as in Test Example 4, except that the above ground weights of weeds in the untreated and treated areas were measured for each weed.
The following plants were used as useful plants [scientific names]. • Wheat [Triticum aestivum]

[13] = test system: multidrug-resistant Alopecurus myosuroides; test: Test Example 5: spraying on the soil surface, herbicidal effect from above ground weight; conditions: Flufenacet alone, 250 gai/ha; sprayed on the soil surface; seven weeks after spraying; Alopecurus myosuroides multidrug-resistant strain
Procedure: as §1, §3, §6, §8, §18, §19
(§20) The following grass species were used as grass species to be controlled [scientific names]. • Blackgrass * [Alopecurus myosuroides] • Italian ryegrass [Lolium multiflorum] • Wild oat [Avena fatua]

[14] = test system: Avena fatua; test: as above; conditions: Flufenacet alone, 250 gai/ha, sprayed on the soil surface, seven weeks after spraying
Procedure: as §1, §3, §6, §8, §18, §19, §20

[15] = test system: Lolium multiflorum; test: as above; conditions: Flufenacet alone, 250 gai/ha, sprayed on the soil surface, seven weeks after spraying
Procedure: as §1, §3, §6, §8, §18, §19, §20

[16] = test system: Digitaria ciliaris; test: Test Example 2: seeds on filter paper moistened with chemical solution, herbicidal effect visually evaluated; conditions: Pinoxaden alone, 0.2 ppm, 6 days after the treatment
[17] = Ambrosia artemisiifolia, 144 h, applied alone, amount of active ingredient 0.8 ppm, read-out: Herbicidal effect (%)

CCOCN(C(=O)CCl)c1c(C)cccc1CC [Acetochlor]
Actual measured value of herbicidal effect ([1]; Acetochlor alone, 1,000 gai/ha): 50% | Actual measured value of herbicidal effect ([2]; Acetochlor alone, 1,000 gai/ha): 20% | Actual measured value of herbicidal effect ([3]; Acetochlor alone, 1,000 gai/ha): 20% | Actual measured value of herbicidal effect ([4]; Acetochlor alone, 1,000 gai/ha): 60% | Actual measured value of herbicidal effect ([5]; Acetochlor alone, 1,000 gai/ha): 60% | Actual measured value of herbicidal effect ([6]; Acetochlor alone, 1,000 gai/ha): 70% | Actual measured value of herbicidal effect ([7]; Acetochlor alone, 1,000 gai/ha): 0% | Actual measured value of herbicidal effect ([8]; Acetochlor alone, 2,000 gai/ha): 20% | Actual measured value of herbicidal effect ([9]; Acetochlor alone, 2,000 gai/ha): 0% | pest or weed control at 0.8 ppm [10, 17]: 40%

CCNc1nc(Cl)nc(NC(C)C)n1 [Atrazine]
Actual measured value of herbicidal effect ([1]; Atrazine alone, 500 gai/ha): 100% | Actual measured value of herbicidal effect ([2]; Atrazine alone, 500 gai/ha): 30% | Actual measured value of herbicidal effect ([3]; Atrazine alone, 500 gai/ha): 100% | Actual measured value of herbicidal effect ([4]; Atrazine alone, 500 gai/ha): 0% | Actual measured value of herbicidal effect ([5]; Atrazine alone, 500 gai/ha): 0% | Actual measured value of herbicidal effect ([6]; Atrazine alone, 500 gai/ha): 100% | Actual measured value of herbicidal effect ([7]; Atrazine alone, 500 gai/ha): 0% | pest or weed control at 200 ppm ([10]; Ambrosia artemisiifolia, 144 h, applied alone, amount of active ingredient 200 ppm): 10%

O=C(O)c1nc(Cl)ccc1Cl [Clopyralid]
Actual measured value of herbicidal effect ([8]; Clopyralid alone, 125 gai/ha): 30% | Actual measured value of herbicidal effect ([9]; Clopyralid alone, 125 gai/ha): 0% | pest or weed control at 12.5 ppm ([10]; Ambrosia artemisiifolia, 144 h, applied alone, amount of active ingredient 12.5 ppm, read-out: Herbicidal effect (%)): 90%

COc1nn(C(=O)[N-]S(=O)(=O)c2ccccc2OC(F)(F)F)c(=O)n1C.[Na+] [Flucarbazone-Sodium, reference compound]
Herbicidal effect ([11]; Flucarbazone-Sodium alone, 3.1 ppm): 20%

CC(C)N(C(=O)COc1nnc(C(F)(F)F)s1)c1ccc(F)cc1 [Flufenacet, reference compound]
Actual measured value of herbicidal effect [12]: 30% | pest or weed control at 0.2 ppm ([10]; Ambrosia artemisiifolia, 144 h, compound applied alone, read-out: Herbicidal effect (%)): 20% | Actual measured value of herbicidal effect [13]: 40% | Actual measured value of herbicidal effect [14]: 60% | Actual measured value of herbicidal effect [15]: 70%

CCc1cc(C)cc(CC)c1-c1c(OC(=O)C(C)(C)C)n2n(c1=O)CCOCC2 [Pinoxaden, reference compound]
Herbicidal effect [16]: 10%

Cn1nc(C(F)(F)F)c(CS(=O)(=O)C2=NOC(C)(C)C2)c1OC(F)F [Pyroxasulfone]
Actual measured value of herbicidal effect ([8]; Pyroxasulfone alone, 94 gai/ha): 60% | Actual measured value of herbicidal effect ([9]; Pyroxasulfone alone, 94 gai/ha): 0% | pest or weed control at 0.2 ppm ([10]; Ambrosia artemisiifolia, 144 h, applied alone, read-out: Herbicidal effect (%)): 30%

COC(=O)c1sccc1S(=O)(=O)NC(=O)Nc1nc(C)nc(OC)n1 [Thifensulfuron-methyl, reference compound]
Herbicidal effect ([11]; Thifensulfuron-methyl alone, 0.8 ppm): 10%

CCCN(CCC)c1c([N+](=O)[O-])cc(C(F)(F)F)cc1[N+](=O)[O-] [Trifluralin]
pest or weed control at 0.8 ppm [10, 17]: 10%

S-metolachlor
Herbicidal effect (%) ([10]; compound applied alone, amount of active ingredient 0.8 ppm): 20%

Reference: patent US20240130368A1, “HERBICIDAL COMPOSITION” (Nippon Soda Co., Ltd., priority 2021, published 2024)
